Values after ≈ are worked out from the molar mass of the structure shown. Values joined by “and” are separate entries in the source; they are usually repeats but may differ in a detail not shown here. Identical values can stand only once. Active and inactive are the calls of the source. No cut-off for these calls is given here.
Experiments:
Mus musculus [1] = assay: Compound was tested for inhibitory activity against P388 leukemia in mice at 400 mg/kg; type: functional, organism-based; parameters: dose 400 mg/kg
[2] = In vitro inhibitory activity against growth of KB cells; type: functional, Homo sapiens; settings: for IC50: Homo sapiens, KB, read-out: ID50 (the source's name)
Mus musculus [3] = assay: In vivo antitumor activity against leukemia P388 in mice after intraperitoneal administration once a day for 1 and 5 days; type: functional
Mus musculus [4] = assay: In vivo antitumor activity against leukemia P388 in mice after intraperitoneal administration at a dose of 400 mg/kg once a day for 1 and 5 days; type: functional
Mus musculus [5] = assay: In vivo antitumor activity against leukemia P388 in mice after intraperitoneal administration at a dose of 100 mg/kg once a day for 1 and 5 days; type: functional
Mus musculus [6] = assay: In vivo antitumor activity against leukemia P388 in mice after intraperitoneal administration at a dose of 200 mg/kg once a day for 1 and 5 days; type: functional
Mus musculus [7] = assay: In vivo antitumor activity against leukemia P388 in mice after intraperitoneal administration at a dose of 50 mg/kg once a day for 1 and 5 days; type: functional
Mus musculus [8] = assay: In vivo antitumor activity against leukemia P388 in mice after intraperitoneal administration of the compound at a dose of 200 mg/kg once a day for 1 and 5 days; type: functional
Mus musculus [9] = assay: In vivo antitumor activity against leukemia P388 in mice after intraperitoneal administration at a dose of 12.5 mg/kg once a day for 1 and 5 days; type: functional
Mus musculus [10] = assay: In vivo antitumor activity against leukemia P388 in mice after intraperitoneal administration at a dose of 25 mg/kg once a day for 1 and 5 days; type: functional

Row | SMILES | Activity (Mus musculus [1]) | ID50 [2] [µM] | IC50 [2] [µg/mL] | also measured
1 | Cc1cc(O)c(C(C)C)cc1C1OCCc2ccccc21 (stereo unspecified) | inactive | 57 | 16 (≈ 56.7 µM) | 
2 | Cc1cc(O)c(C(C)C)cc1C(c1ccccc1)c1cc(C(C)C)c(O)cc1C |  | 34 | 13 (≈ 33.5 µM) | T/C (Mus musculus [3]): 102% and 100% and 87%
3 | COc1ccc(C(NC(C)=O)c2ccc(C(C)C)cc(=O)c2O)cc1 (stereo unspecified) |  | 18 | 6 (≈ 17.6 µM) | T/C (Mus musculus [4]): 108%; T/C (Mus musculus [5]): 92%; T/C (Mus musculus [6]): 92%
4 | Oc1ccccc1C1OCCc2ccccc21 (stereo unspecified) | inactive | 90 | 20.5 (≈ 90.6 µM) | 
5 | Oc1ncc(C2OCCc3ccccc32)c(O)n1 (stereo unspecified) | inactive | 410 | > 100 | 
6 | S=c1oc2ccc(Cl)cc2n1CC1OCCc2ccccc21 (stereo unspecified) | inactive | 28 | 8.9 (≈ 26.8 µM) | 
7 | CC(C)c1ccc(C(Sc2ccccc2)c2ccccc2)c(O)c(=O)c1 (stereo unspecified) |  | 1.4 | 0.5 (≈ 1.38 µM) | T/C (Mus musculus [4]): 113%; T/C (Mus musculus [5]): 108%; T/C (Mus musculus [6]): 135%
8 | S=c1oc2ccc(Cl)cc2n1C1OCCc2ccccc21 (stereo unspecified) | inactive | 268 | 85 (≈ 267 µM) | 
9 | O=C(c1ccccc1)C(c1ccccc1)C1OCCc2ccccc21 (stereo unspecified) | inactive | 305 | > 100 | 
10 | COc1ccc(C(NC(=O)c2ccccc2)c2ccc(C(C)C)cc(=O)c2O)cc1 (stereo unspecified) |  | 4.2 | 1.7 (≈ 4.21 µM) | T/C (Mus musculus [4]): 131%; T/C (Mus musculus [5]): 104%; T/C (Mus musculus [6]): 110%
11 | COc1ccc(C(c2oc(CO)cc(=O)c2O)c2oc(CO)cc(=O)c2O)cc1 |  | 249 | 100 (≈ 249 µM) | T/C (Mus musculus [5]): 98%; T/C (Mus musculus [6]): 102%; T/C (Mus musculus [7]): 102%
12 | O=C1c2ccccc2CC1C1OCCc2ccccc21 (stereo unspecified) | inactive | 144 | 38 (≈ 144 µM) | 
13 | O=c1oc2ccccc2c(O)c1C1OCCc2ccccc21 (stereo unspecified) | inactive | 340 | 100 (≈ 340 µM) | 
14 | COc1ccc(C(c2ccc(C(C)C)cc(=O)c2O)n2c(=S)oc3ccccc32)cc1 (stereo unspecified) |  | 8.5 | 3.7 (≈ 8.53 µM) | T/C (Mus musculus [8]): 105%; T/C (Mus musculus [4]): 133%; T/C (Mus musculus [5]): 113%
15 | Oc1ccc(C2OCCc3ccccc32)cc1 (stereo unspecified) | inactive | 119 | 27 (≈ 119 µM) | 
16 | CCOC(c1ccc(OC)cc1)c1ccc(C(C)C)cc(=O)c1O (stereo unspecified) |  |  | 0.5 (≈ 1.52 µM) | T/C (Mus musculus [9]): 96%; T/C (Mus musculus [7]): 119%; T/C (Mus musculus [10]): 109%
17 | CC1(C)CC(=O)C(C2OCCc3ccccc32)=C(O)C1 (stereo unspecified) | inactive | 368 | > 100 | 
18 | CC(=O)C1=C(O)CN(C2OCCc3ccccc32)C1=O (stereo unspecified) | inactive | 366 | > 100 | 
19 | CCOC(c1ccccc1)c1ccc(C(C)C)cc(=O)c1O (stereo unspecified) |  |  |  | T/C (Mus musculus [10]): 97%; T/C (Mus musculus [3]): 96%
20 | COC(=O)c1ccc(O)c(C2OCCc3ccccc32)c1 (stereo unspecified) | inactive | 352 | > 100 | 
21 | O=C1c2ccccc2CCC1C1OCCc2ccccc21 (stereo unspecified) | inactive | 151 | 42 (≈ 151 µM) | 
22 | Clc1ccc2oc(SCC3OCCc4ccccc43)nc2c1 (stereo unspecified) | inactive | 18 | 6.1 (≈ 18.4 µM) | 

Source: ChEMBL document CHEMBL1122911, “Synthesis and antitumor activity of tropolone derivatives. 2” (1985)
